From patent US20040259926A1, “3-Aryloxy and 3-heteroaryloxy substituted benzo[b]thiophenes as therapeutic agents” (priority 2003, published 2004) come the findings set out here.

This assay deals with T1, PI3Kγ (recombinant p101/p110γ protein) (Homo sapiens, UniProt P48736).
T1 construct: HA; made in house; host or cells: Spodoptera frugiperda (Sf9) cells, baculovirus co-infection
T1 sequence (P48736 whole entry, species assumed): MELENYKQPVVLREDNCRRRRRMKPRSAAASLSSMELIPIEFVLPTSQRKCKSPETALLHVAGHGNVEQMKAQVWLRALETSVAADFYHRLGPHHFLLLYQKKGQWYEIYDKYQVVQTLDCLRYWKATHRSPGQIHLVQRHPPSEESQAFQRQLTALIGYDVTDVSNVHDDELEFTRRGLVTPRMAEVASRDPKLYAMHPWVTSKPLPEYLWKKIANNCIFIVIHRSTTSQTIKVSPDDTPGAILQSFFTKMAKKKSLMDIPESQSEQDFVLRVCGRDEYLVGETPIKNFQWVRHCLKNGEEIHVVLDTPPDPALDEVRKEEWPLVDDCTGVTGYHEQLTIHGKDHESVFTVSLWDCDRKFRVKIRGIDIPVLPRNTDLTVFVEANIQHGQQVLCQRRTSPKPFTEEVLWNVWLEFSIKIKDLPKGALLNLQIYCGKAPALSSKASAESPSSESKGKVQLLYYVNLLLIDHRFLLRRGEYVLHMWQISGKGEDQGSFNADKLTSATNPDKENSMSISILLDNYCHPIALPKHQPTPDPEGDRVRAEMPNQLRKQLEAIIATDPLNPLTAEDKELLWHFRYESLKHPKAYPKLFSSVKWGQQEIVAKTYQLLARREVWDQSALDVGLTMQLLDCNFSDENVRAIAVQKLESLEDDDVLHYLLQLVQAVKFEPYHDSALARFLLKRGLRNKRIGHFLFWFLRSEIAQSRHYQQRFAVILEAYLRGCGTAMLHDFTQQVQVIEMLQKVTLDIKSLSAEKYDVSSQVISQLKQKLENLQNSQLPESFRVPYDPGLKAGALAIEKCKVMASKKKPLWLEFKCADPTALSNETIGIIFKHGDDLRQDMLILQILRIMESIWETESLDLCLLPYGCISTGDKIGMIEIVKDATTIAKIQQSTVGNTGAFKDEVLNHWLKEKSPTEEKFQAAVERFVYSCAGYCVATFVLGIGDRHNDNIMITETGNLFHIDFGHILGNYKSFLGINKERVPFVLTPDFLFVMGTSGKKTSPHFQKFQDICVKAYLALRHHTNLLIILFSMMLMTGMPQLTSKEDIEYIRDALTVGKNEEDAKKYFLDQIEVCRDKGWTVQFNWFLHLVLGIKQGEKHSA
T1 sequence (Q8WYR1 whole entry partner, species assumed): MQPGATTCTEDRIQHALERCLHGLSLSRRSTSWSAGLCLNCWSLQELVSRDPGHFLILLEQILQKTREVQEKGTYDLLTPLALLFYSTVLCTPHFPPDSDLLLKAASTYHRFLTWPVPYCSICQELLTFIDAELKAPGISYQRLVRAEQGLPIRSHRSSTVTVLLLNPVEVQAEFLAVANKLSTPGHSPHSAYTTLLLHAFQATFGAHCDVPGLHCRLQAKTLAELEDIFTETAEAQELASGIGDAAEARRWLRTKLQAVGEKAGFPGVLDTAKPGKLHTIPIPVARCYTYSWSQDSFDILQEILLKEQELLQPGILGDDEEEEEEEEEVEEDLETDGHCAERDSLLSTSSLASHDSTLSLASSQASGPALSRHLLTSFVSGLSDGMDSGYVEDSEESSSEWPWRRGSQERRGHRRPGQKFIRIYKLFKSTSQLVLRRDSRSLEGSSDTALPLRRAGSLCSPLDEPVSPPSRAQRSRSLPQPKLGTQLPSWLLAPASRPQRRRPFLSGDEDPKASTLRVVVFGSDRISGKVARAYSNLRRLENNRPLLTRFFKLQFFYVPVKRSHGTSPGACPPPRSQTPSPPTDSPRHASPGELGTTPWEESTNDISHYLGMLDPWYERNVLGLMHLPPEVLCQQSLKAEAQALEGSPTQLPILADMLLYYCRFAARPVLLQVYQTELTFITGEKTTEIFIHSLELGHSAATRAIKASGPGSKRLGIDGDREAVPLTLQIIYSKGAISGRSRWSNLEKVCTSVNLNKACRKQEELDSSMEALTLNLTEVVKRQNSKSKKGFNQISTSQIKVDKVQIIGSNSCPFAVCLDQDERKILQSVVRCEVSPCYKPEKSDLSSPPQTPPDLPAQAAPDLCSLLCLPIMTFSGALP
The assay is described as follows: PI3Kγ In Vitro Kinase Assay. Format: biochemical. The settings on record: purified recombinant p101/p110γ with G protein β1/γ2 subunits; 20 μM ATP, [γ-32P-ATP]; 25 μM PIP2 lipid micelles; 20 minutes at room temperature. The method, then:
Spodtera frugiperda cells, grown in ESF921 media, were coinfected with baculovirus expressing a glu-tagged […] and baculovirus expressing an HA-tagged p110γ, at a 3:1 ratio of p101 baculovirus to p110γ baculovirus. Sf9 cells were grown to 1×10^7 total cells/mL in 10 L bioreactors and harvested 48-72 hours post infection. Samples of infected cells were then tested for expression of p101/p110γ PI3 kinase by immunoprecipitation and Western Blot analysis methods (see below).
To purify PI3Kγ, 4 volumes of room temperature hypotonic lysis buffer (1 mM MgCl2, 1 mM DTT, 5 mM EGTA, 1 mM Pefabloc, 0.5 μM aprotinin, 5 μM leupeptin, 2 μM pepstatin, 5 μM E64, pH 8) per gram of cell paste, was poured onto frozen cell pellets with stirring, then lysed in a nitrogen “bomb” at 400 psi (599 HC T316, Parr Instrument Co, Moline, Ill.). NaCl was added to 150 mM, and sodium cholate was added to 1% and mixed for another 45 minutes. The lysates were clarified by centrifugation for 25 minutes at 14,000 rpm. The lysates were then loaded over anti-glu-linked Protein-G Sepaharose beads (Covance Research Products, Richmond, Calif.) using 20 mL resin/50 g cell paste. The column was washed with 15 volumes of wash buffer (1 mM DTT, 0.2 mM EGTA, 1 mM Pefabloc, 0.5 μM aprotinin, 5 μM leupeptin, 2 μM pepstatin, 5 μM E64, 150 mM NaCl, 1% sodium cholate, pH 8). PI3Kγ was eluted with 6 column volumes of wash buffer that contain 100 μg/mL of a peptide that competes for binding of the glu tag. The column fractions with the eluted protein (determined by taking OD280 readings) were collected and dialyzed in 0.2 mM EGTA, 1 mM DTT, 1 mM Pefabloc, 5 μM leupeptin, 0.5% sodium cholate, 150 mM NaCl, and 50% glycerol, pH 8. The fractions were stored at −80° C. until further use.
Spodtera frugiperda cells were coinfected with baculovirus expressing a glu-tagged G protein β1 and baculovirus expressing a G protein β2 at a 1:1 ratio of glu-tagged G protein β1 baculovirus to G protein β2 baculovirus. Sf9 cells are grown in 10 L bioreactors and harvested 48-72 hours post infection. Samples of infected cells were tested for G protein β1/β2 expression by Western Blot analysis, as described below. Cell lysates were homogenized and loaded onto a column of glu-tagged beads as in Biological Example 1 and competed off the column with a glu peptide and processed as described in Biological Example 1.
The inhibitory properties of the compounds in Table 1 were assayed in an in vitro PI3K assay. In a 96-well polypropylene plate, each well was spotted with 2 μL of 50 times the desired final concentration of compound in DMSO. Purified recombinant p101/p110γ protein (0.03 μg; ˜2.7 nM) and G protein β1/γ2 subunits (0.09 μg; ˜57.7 nM) for each reaction was combined in the assay buffer (30 mM HEPES, 100 mM NaCl, 1 mM EGTA, and 1 mM DTT). ATP and [γ-^32P-ATP] (0.09 μCi) were added to this mixture so that the final ATP concentration in the reaction was 20 μM. Lipid micelles were formed by sonicating phosphatidylinositol-4,5-diphosphate (PIP2), phosphatidylethanolamine (PE), and Na-cholate in the assay buffer for 10 minutes, adding MgCl2 and incubating on ice for 20 minutes, for final concentrations of 25 μM PIP2, 300 μM PE, 0.02% Na-cholate, and 10 mM MgCl2 in the reaction. The reactions were started by adding equal volumes lipid and enzyme mixture in a total volume of 50 μL, allowed to run for 20 minutes at room temperature, and stopped with 100 μL 75 mM H3PO4. The lipid product was transferred to a glass fiber filter plate and washed with 75 mM H3PO4 several times. The presence of radioactive lipid product (PIP3) was measured by adding Wallac Optiphase mix to each well and counting in a Wallac 1450 Trilux plate reader (PerkinElmer Life Sciences Inc., Boston, Mass. 02118). The IC50 for each compound tested is reported in μM in Table 1: […]
For the molecule `COc1ccc2sc(C(=O)Nc3nn[nH]n3)c(Oc3cccc(C)c3)c2c1` [Example A.3, 5-Methoxy-3-m-tolyloxy-benzo[b]thiophene-2-carboxylic acid (2H-tetrazol-5-yl)-amide], the IC50 is 415 nM. The figure for `COc1cc2c(Oc3ccc(C4CCCCC4)cc3)c(C(=O)Nc3nn[nH]n3)sc2cc1C` [Example B.4, 3-(4-Cyclohexyl-phenoxy)-5-methoxy-6-methyl-benzo[b]thiophene-2-carboxylic acid (2H-tetrazol-5-yl)-amide] is 37 nM; for `COc1ccc2sc(C(=O)Nc3nn[nH]n3)c(Oc3cccc(N(C)C)c3)c2c1` [Example A.8, 3-(3-dimethylamino-phenoxy)-5-methoxy-benzo[b]thiophene-2-carboxylic acid (2H-tetrazol-5-yl)-amide] it is 215 nM; for `COc1ccc2sc(C(=O)Nc3nn[nH]n3)c(Oc3ccc(C4CCCCC4)cc3)c2c1` [Example A.16, 3-(4-cyclohexyl-phenoxy)-5-Methoxy-benzo[b]thiophene-2-carboxylic acid (2H-tetrazol-5-yl)-amide] it is 26 nM. With `COc1cc2c(Oc3ccc(C4(C(N)=O)CCCC4)cc3)c(C(=O)Nc3nn[nH]n3)sc2cc1C` [Example B.64, 3-[4-(1-carbamoyl-cyclopentyl)-phenoxy]-5-methoxy-6-methyl-benzo[b]thiophene-2-carboxylic acid (2H-tetrazol-5-yl)-amide], the IC50 was found to be 9 nM.

Take `COc1cc2c(Oc3cccc(C4CCCCC4)c3)c(C(=O)Nc3nn[nH]n3)sc2cc1C` [Example B.9, 3-(3-Cyclohexyl-phenoxy)-5-methoxy-6-methyl-benzo[b]thiophene-2-carboxylic acid (2H-tetrazol-5-yl)-amide]: the IC50 came out at 63 nM. Take `COc1cc2sc(C(=O)Nc3nn[nH]n3)c(Oc3ccc(C(C)(C)C)cc3)c2cc1C` [Example D.6, 3-(4-tert-Butyl-phenoxy)-6-methoxy-5-methyl-benzo[b]thiophene-2-carboxylic acid (2H-tetrazol-5-yl)-amide]: the IC50 was found to be 890 nM. Turning to `COc1cc2c(Oc3ccc(OC4CCCC4)cc3)c(C(=O)Nc3nn[nH]n3)sc2cc1C` [Example B.17, 3-(4-Cyclopentyloxy-phenoxy)-5-methoxy-6-methyl-benzo[b]thiophene-2-carboxylic acid (2H-tetrazol-5-yl)-amide], the IC50 is 4 nM. The same measure for `COc1cc2sc(C(=O)Nc3nnn[nH]3)c(OCc3c(F)ccc(F)c3F)c2cc1OC` [Example C.8, 5,6-Dimethoxy-3-(2,3,6-trifluoro-benzyloxy)-benzo[b]thiophene-2-carboxylic acid (1H-tetrazol-5-yl)-amide]: 564 nM.

`COc1cc2c(Oc3ccc4ccccc4c3)c(C(=O)Nc3nn[nH]n3)sc2cc1C` [Example B.3, 5-Methoxy-6-methyl-3-(naphthalene-2-yloxy)-benzo[b]thiophene-2-carboxylic acid (2H-tetrazol-5-yl)-amide]: the IC50 stood at 79 nM. The same measure for `COc1cc2c(Oc3ccc(C4CCCCC4)cc3[N+](=O)[O-])c(C(=O)Nc3nn[nH]n3)sc2cc1C` [Example B.70, 5-Methoxy-6-methyl-3-(2-nitro-4-cyclohexyl-phenoxy)-benzo[b]thiophene-2-carboxylic acid (2H-tetrazol-5-yl)-amide]: 17 nM; for `COc1cc2c(Oc3ccc(C4CCS(=O)(=O)CC4)cc3)c(C(=O)Nc3nn[nH]n3)sc2cc1C` [Example B.69, 3-[4-(1,1-Dioxo-hexahydro-1λ^6-thiopyran-4-yl)-phenoxy]-5-methoxy-6-methyl-benzo[b]thiophene-2-carboxylic acid (2H-tetrazol-5-yl)-amide]: 4 nM. In the case of `COc1ccc2sc(C(=O)Nc3nn[nH]n3)c(Oc3cccc(C(C)C)c3)c2c1` [Example A.13, 3-(3-Isopropyl-phenoxy)-5-Methoxy-benzo[b]thiophene-2-carboxylic acid (2H-tetrazol-5-yl)-amide], the IC50 turned out to be 99 nM. Take `CCOC(=O)Cc1ccc(Oc2c(C(=O)Nc3nn[nH]n3)sc3cc(C)c(OC)cc23)cc1` [Example B.6, {4-[5-Methoxy-6-methyl-2-(2H-tetrazol-5-ylcarbamoyl)-benzo[b]thiophene-3-yloxy]-phenyl}-acetic acid ethyl ester]: the IC50 worked out at 12 nM. On to `COc1cc2c(Oc3ccc(Br)cc3)c(C(=O)Nc3nn[nH]n3)sc2cc1C` [Example B.38, 3-(4-Bromo-phenoxy)-5-methoxy-6-methyl-benzo[b]thiophene-2-carboxylic acid (2H-tetrazol-5-yl)-amide], for which the concentration for half-maximal inhibition (IC50) is 16 nM. For the molecule `COc1cc2sc(C(=O)Nc3nnn[nH]3)c(OC[C@@H](C)c3ccccc3)c2cc1OC` [Example C.23, 5,6-Dimethoxy-3-((S)-2-phenyl-propoxy)-benzo[b]thiophene-2-carboxylic acid (1H-tetrazol-5-yl)-amide], the IC50 was determined as 255 nM. The figure for `CCOc1cc2c(Oc3ccc(C4CCCCC4)cc3)c(C(=O)Nc3nnn[nH]3)sc2cc1C` [Example L.1, 3-(4-cyclohexyl-phenoxy)-5-ethoxy-6-methyl-benzo[b]thiophene-2-carboxylic acid (1H-tetrazol-5-yl)-amide] is 115 nM; for `COc1cc2sc(C(=O)Nc3nnn[nH]3)c(OC[C@H](C)c3ccccc3)c2cc1OC` [Example C.35, 5,6-Dimethoxy-3-((R)-2-phenyl-propoxy)-benzo[b]thiophene-2-carboxylic acid (1H-tetrazol-5-yl)-amide] it is 42 nM; for `COc1cc2sc(C(=O)Nc3nnn[nH]3)c(OCc3cccc(OC4CCCC4)c3)c2cc1OC` [Example C.25, 3-(3-Cyclopentyloxy-benzyloxy)-5,6-dimethoxy-benzo[b]thiophene-2-carboxylic acid (1H-tetrazol-5-yl)-amide] it is 230 nM. The same measure for `COc1cc2c(Oc3cccc(C(F)(F)F)c3)c(C(=O)Nc3nn[nH]n3)sc2cc1C` [Example B.42, 5-Methoxy-6-methyl-3-(3-trifluoromethyl-phenoxy)-benzo[b]thiophene-2-carboxylic acid (2H-tetrazol-5-yl)-amide]: 180 nM. The same measure for `COc1ccc2sc(C(=O)Nc3nn[nH]n3)c(Oc3cc(C)cc(C(C)C)c3)c2c1` [Example A.14, 3-(3-Isopropyl-5-methyl-phenoxy)-5-Methoxy-benzo[b]thiophene-2-carboxylic acid (2H-tetrazol-5-yl)-amide]: 268 nM.

Take `COc1cc2c(Oc3ccc(OC4CCC4)cc3)c(C(=O)Nc3nn[nH]n3)sc2cc1C` [Example B.33, 3-(4-Cyclobutoxy-phenoxy)-5-methoxy-6-methyl-benzo[b]thiophene-2-carboxylic acid (2H-tetrazol-5-yl)-amide]: the IC50 was 7 nM. The figure for `COc1cc2sc(C(=O)Nc3nnn[nH]3)c(OCc3ccccn3)c2cc1OC` [Example C.14, 5,6-Dimethoxy-3-(pyridin-2-ylmethoxy)-benzo[b]thiophene-2-carboxylic acid (1H-tetrazol-5-yl)-amide] is 885 nM; for `COc1cc2c(Oc3ccc4cc(Br)ccc4c3)c(C(=O)Nc3nn[nH]n3)sc2cc1C` [Example B.5, 3-(6-Bromo-naphthalen-2-yloxy)-5-methoxy-6-methyl-benzo[b]thiophene-2-carboxylic acid (2H-tetrazol-5-yl)-amide] it is 520 nM.

As usually defined, the IC50 is the concentration that gives 50% inhibition.
